For assay [1], the target named is T1, ALK (Homo sapiens, UniProt Q9UM73).
T1 construct: host or cells: baculovirus expression system
The experiment in a line: ALK Kinase Assay (ELISA/TRF, PLC-γ substrate). In kind it is biochemical. The settings on record: read-out: ALK Potency. An outline of the steps: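 Time-resolved fluorescence ELISA using Eu-N1 PT66 antibody to detect phosphorylated PLC-γ (coated at 10 μg/mL). Enzyme at 30 ng/ml ALK; 15 min incubation, 37° C.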

In assay [2] the target is T2, JAK2 (Homo sapiens, UniProt O60674).
T2 construct: host or cells: baculovirus expression system
T2 sequence (O60674 whole entry): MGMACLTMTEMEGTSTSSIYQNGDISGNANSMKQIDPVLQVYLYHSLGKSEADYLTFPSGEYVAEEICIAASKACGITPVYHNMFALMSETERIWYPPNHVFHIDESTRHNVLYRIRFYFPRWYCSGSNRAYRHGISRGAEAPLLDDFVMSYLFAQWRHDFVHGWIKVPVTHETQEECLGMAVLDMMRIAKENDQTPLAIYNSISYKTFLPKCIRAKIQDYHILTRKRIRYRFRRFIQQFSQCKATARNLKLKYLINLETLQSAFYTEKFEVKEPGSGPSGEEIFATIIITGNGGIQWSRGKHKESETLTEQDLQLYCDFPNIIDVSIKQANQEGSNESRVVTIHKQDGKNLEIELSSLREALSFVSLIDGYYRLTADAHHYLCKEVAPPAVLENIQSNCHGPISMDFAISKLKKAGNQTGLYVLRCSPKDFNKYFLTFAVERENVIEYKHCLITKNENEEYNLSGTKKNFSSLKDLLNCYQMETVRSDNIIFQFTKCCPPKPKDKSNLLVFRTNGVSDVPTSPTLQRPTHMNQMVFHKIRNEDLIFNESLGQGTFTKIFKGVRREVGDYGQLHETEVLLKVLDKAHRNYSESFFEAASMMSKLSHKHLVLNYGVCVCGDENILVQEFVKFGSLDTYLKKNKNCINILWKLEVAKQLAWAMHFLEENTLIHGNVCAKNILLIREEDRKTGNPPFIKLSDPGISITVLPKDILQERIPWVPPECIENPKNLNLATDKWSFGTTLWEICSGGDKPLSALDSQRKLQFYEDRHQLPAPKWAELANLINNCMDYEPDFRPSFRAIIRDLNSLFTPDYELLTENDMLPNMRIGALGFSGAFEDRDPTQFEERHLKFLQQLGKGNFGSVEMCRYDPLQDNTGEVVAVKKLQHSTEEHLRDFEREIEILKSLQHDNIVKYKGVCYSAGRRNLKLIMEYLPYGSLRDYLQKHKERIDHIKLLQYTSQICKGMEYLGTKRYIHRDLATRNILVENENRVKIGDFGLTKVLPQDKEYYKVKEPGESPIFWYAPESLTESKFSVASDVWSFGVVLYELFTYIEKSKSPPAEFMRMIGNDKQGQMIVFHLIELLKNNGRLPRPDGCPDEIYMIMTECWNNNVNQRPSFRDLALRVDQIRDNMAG
The experiment in a line: Recombinant Human JAK2 Kinase Assay (TRF). The settings on record: read-out: JAK2 Potency. In kind it is biochemical. An outline of the steps:
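Europium-labelled PY100 antibody reported tyrosine phosphorylation of a Neutravidin-captured biotinyl 15-mer peptide by JAK2 (baculovirus-expressed, 15 ng/ml). Conditions: 20 mM HEPES pH 7.2, 0.2 μM ATP, 1 mM MnCl2, 0.1% BSA, DMSO 2.5% final, 20 min at room temperature.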

Setting [3] is: ALK kinase inhibition, 1 μM ATP.
The mark [4] stands for this setting: JAK2 kinase inhibition, 0.2 μM ATP.

pIC50: −log10 of the molar value. Where two headings read alike, the source gives them in different places. Where only a bound is given, the exact number is not on record here.

T1 sequence (Q9UM73 19-1620): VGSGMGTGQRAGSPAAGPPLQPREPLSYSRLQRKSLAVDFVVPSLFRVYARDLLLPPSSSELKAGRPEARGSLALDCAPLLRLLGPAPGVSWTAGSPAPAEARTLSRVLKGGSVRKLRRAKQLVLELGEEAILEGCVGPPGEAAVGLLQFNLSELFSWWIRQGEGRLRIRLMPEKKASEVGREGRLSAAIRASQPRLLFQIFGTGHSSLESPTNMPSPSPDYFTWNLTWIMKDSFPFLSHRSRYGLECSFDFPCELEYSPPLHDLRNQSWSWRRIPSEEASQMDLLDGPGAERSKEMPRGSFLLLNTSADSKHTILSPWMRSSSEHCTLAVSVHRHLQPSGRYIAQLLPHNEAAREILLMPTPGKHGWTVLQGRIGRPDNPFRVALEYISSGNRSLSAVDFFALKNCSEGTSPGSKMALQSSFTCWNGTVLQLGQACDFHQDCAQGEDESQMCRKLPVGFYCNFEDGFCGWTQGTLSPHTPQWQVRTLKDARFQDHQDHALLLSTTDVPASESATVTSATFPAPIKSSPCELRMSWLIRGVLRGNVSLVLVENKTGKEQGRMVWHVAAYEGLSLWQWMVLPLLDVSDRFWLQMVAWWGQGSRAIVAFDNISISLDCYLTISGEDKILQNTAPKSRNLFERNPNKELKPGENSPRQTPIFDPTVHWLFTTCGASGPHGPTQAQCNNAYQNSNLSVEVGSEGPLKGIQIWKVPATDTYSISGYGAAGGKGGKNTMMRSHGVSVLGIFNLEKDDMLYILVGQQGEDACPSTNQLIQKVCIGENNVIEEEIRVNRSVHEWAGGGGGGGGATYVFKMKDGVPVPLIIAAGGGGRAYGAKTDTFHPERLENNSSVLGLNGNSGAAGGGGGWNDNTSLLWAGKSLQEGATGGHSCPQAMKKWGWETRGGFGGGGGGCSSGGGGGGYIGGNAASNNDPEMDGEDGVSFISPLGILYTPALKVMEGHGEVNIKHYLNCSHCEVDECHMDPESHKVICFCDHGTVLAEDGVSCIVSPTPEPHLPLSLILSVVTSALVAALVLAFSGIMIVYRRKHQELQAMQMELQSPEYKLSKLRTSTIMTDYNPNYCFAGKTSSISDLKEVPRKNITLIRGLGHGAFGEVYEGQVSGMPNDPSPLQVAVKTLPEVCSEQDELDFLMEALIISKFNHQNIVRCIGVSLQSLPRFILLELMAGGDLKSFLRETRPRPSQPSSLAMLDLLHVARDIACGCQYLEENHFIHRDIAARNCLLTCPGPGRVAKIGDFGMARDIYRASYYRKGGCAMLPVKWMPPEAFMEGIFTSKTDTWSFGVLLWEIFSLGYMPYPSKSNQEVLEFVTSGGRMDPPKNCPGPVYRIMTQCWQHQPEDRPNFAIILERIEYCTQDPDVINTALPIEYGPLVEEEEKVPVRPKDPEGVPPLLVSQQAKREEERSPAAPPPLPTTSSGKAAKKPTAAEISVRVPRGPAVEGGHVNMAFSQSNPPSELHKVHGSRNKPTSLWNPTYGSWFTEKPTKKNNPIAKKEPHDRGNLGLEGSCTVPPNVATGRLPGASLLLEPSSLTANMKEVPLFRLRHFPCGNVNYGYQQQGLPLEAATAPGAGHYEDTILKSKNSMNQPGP

Take `CN1CCC(c2ccc(Nc3ncc4ccc(-c5ccn(C)n5)n4n3)cc2)CC1` [Example 954, [4-(1-Methyl-piperidin-4-yl)-phenyl]-[7-(1-methyl-1H-pyrazol-3-yl)-pyrrolo[2,1-f][1,2,4]triazin-2-yl]-amine]: the values for the pIC50 in assay [1] (setting [3]) and in assay [2] (setting [4]) were 6.00 to 7.00 and greater than 7.00, respectively.
On to `CN1CCN(Cc2nc3ccc(Nc4ncc5ccc(-c6ccccc6N(C)S(C)(=O)=O)n5n4)cc3[nH]2)CC1` [Example 1525, N-Methyl-N-(2-{2-[2-(4-methyl-piperazin-1-ylmethyl)-3H-benzimidazol-5-ylamino]-pyrrolo[2,1-f][1,2,4]triazin-7-yl}-phenyl)-methanesulfonamide], for which the results for the pIC50 in assay [1] (ALK Kinase Inhibition) and in assay [2] (JAK2 Kinase Inhibition) were 6.00 to 7.00 and greater than 7.00, respectively.
Consider `COc1cc(C2CCN(C)CC2)ccc1Nc1ncc2ccc(-c3cccc(S(=O)(=O)NC(C)(C)C)c3)n2n1` [Example 692, N-tert-Butyl-3-{2-[2-methoxy-4-(1-methyl-piperidin-4-yl)-phenylamino]-pyrrolo[2,1-f][1,2,4]triazin-7-yl}-benzenesulfonamide], for which the pIC50 in assay [1] (setting [3]) and in assay [2] (setting [4]) was greater than 7.00 throughout.
With `CN1Cc2ccc(Nc3ncc4ccc(-c5cccc(S(=O)(=O)NC(C)(C)C)c5)n4n3)cc2C1` [Example 936, N-tert-Butyl-3-[2-(2-methyl-2,3-dihydro-1H-isoindol-5-ylamino)-pyrrolo[2,1-f][1,2,4]triazin-7-yl]-benzenesulfonamide], the pIC50 in assay [1] (setting [3]) was 6.00 to 7.00; in assay [2] (setting [4]) it was greater than 7.00.
In the same order, the values of `COc1cc(C2CCN(CC(C)(C)O)CC2)ccc1Nc1ncc2ccc(-c3ccccc3N(C)S(C)(=O)=O)n2n1` [Example 866, N-[2-(2-{4-[1-(2-Hydroxy-2-methyl-propyl)-piperidin-4-yl]-2-methoxy-phenylamino}-pyrrolo[2,1-f][1,2,4]triazin-7-yl)-phenyl]-N-methyl-methanesulfonamide] are greater than 7.00 and 6.00 to 7.00.
As for “[7-(4-Methanesulfonyl-phenyl)-pyrrolo[2,1-f][1,2,4]triazin-2-yl]-(4-piperidin-1-yl-phenyl)-amine [Example 85]”, the values for the pIC50 in assay [1] (ALK Kinase Inhibition) and in assay [2] (JAK2 Kinase Inhibition) were less than 5.00 and greater than 7.00, respectively.
For the compound `CN(Cc1cccc(-c2ccc3cnc(Nc4ccc5c(c4)NC(=O)C5(C)C)nn23)c1)S(C)(=O)=O` [Example 1054, N-{3-[2-(3,3-Dimethyl-2-oxo-2,3-dihydro-1H-indol-6-ylamino)-pyrrolo[2,1-f][1,2,4]triazin-7-yl]-benzyl}-N-methyl-methanesulfonamide], the figures for the pIC50 in assay [1] (setting [3]) and in assay [2] (setting [4]) were less than 5.00 and greater than 7.00, respectively.
As to `COc1cc(N2CCC(N3CCCOCC3)CC2)ccc1Nc1ncc2ccc(-c3ccccc3N(C)S(C)(=O)=O)n2n1` [Example 783, N-(2-{2-[2-Methoxy-4-(4-[1,4]oxazepan-4-yl-piperidin-1-yl)-henylamino]-pyrrolo[2,1-f][1,2,4]triazin-7-yl}-phenyl)-N-methyl-methanesulfonamide], the pIC50 in assay [1] (setting [3]) is greater than 7.00; in assay [2] (setting [4]), 6.00 to 7.00.
`CC(C)(C)NS(=O)(=O)c1cccc(-c2ccc3cnc(Nc4cccc(C(N)=O)c4)nn23)c1` [Example 1390, 3-[7-(3-tert-Butylsulfamoyl-phenyl)-pyrrolo[2,1-f][1,2,4]triazin-2-ylamino]-benzamide]: the pIC50 was 5.00 to 6.00 in assay [1] (ALK Kinase Inhibition) and greater than 7.00 in assay [2] (JAK2 Kinase Inhibition).
Turning to `Cc1cc(Nc2ncc3ccc(-c4cccc(S(C)(=O)=O)c4)n3n2)ccc1C1CCN(C)CC1` [Example 946, [7-(3-Methanesulfonyl-phenyl)-pyrrolo[2,1-f][1,2,4]triazin-2-yl]-[3-methyl-4-(1-methyl-piperidin-4-yl)-phenyl]-amine], the pIC50 in assay [1] (setting [3]) and in assay [2] (setting [4]) was greater than 7.00 in each case.
`Cn1ccc(-c2ccc3cnc(Nc4ccc(C5CCN(CC(N)=O)CC5)cc4)nn23)n1` [Example 955]: the pIC50 in assay [1] (setting [3]) was 6.00 to 7.00; in assay [2] (setting [4]), greater than 7.00.
For the compound `CCN1CCOC(c2ccc(Nc3ncc4ccc(-c5ccccc5N(C)S(C)(=O)=O)n4n3)cc2)C1` (stereo not drawn) [Example 995, N-(2-{2-[4-(4-Ethyl-morpholin-2-yl)-phenylamino]-pyrrolo[2,1-f][1,2,4]triazin-7-yl}-phenyl)-N-methyl-methanesulfonamide], the pIC50 in assay [1] (setting [3]) and in assay [2] (setting [4]) was greater than 7.00 each time.
As for `CN(C)c1cccc(CNc2ncc3c(-c4ccc(F)cc4)ccn3n2)c1` [Example 729, (3-Dimethylamino-benzyl)-[5-(4-fluoro-phenyl)-pyrrolo[2,1-f][1,2,4]triazin-2-yl]-amine], the results for the pIC50 in assay [1] (setting [3]) and in assay [2] (setting [4]) were less than 5.00 and 5.00 to 6.00, respectively.
As to `CN1CCC(c2ccc(Nc3ncc4ccc(-c5ccc(S(C)(=O)=O)cc5)n4n3)cc2)CC1` [Example 1119, [7-(4-Methanesulfonyl-phenyl)-pyrrolo[2,1-f][1,2,4]triazin-2-yl]-[4-(1-methyl-piperidin-4-yl)-phenyl]-amine], the pIC50 in assay [1] (setting [3]) and in assay [2] (setting [4]) was greater than 7.00 in each case.
Consider `CN(c1ccccc1-c1ccc2cnc(Nc3ccc(C4(C#N)CCN(CC(N)=O)CC4)cc3)nn12)S(C)(=O)=O` [Example 1549, 2-[4-Cyano-4-(4-{7-[2-(methanesulfonyl-methyl-amino)-phenyl]-pyrrolo[2,1-f][1,2,4]triazin-2-ylamino}-phenyl)-piperidin-1-yl]-acetamide], for which the pIC50 in assay [1] (ALK Kinase Inhibition) and in assay [2] (JAK2 Kinase Inhibition) was greater than 7.00 each time.
On to `CN1CCOc2ccc(Nc3ncc4ccc(-c5cccc(S(=O)(=O)NC(C)(C)C)c5)n4n3)cc21` [Example 650, N-tert-Butyl-3-[2-(4-methyl-3,4-dihydro-2H-benzo[1,4]oxazin-6-ylamino)-pyrrolo[2,1-f][1,2,4]triazin-7-yl]-benzenesulfonamide], for which the results for the pIC50 in assay [1] (setting [3]) and in assay [2] (setting [4]) were 6.00 to 7.00 and greater than 7.00, respectively.
For the compound `OC(c1ccccc1)c1ccc2cnc(Nc3ccc(N4CCOCC4)cc3)nn12` (stereo not drawn) [Example 383, [2-(4-Morpholin-4-yl-phenylamino)-pyrrolo[2,1-f][1,2,4]triazin-7-yl]-phenyl-methanol], the pIC50 in assay [1] (ALK Kinase Inhibition) was 5.00 to 6.00; in assay [2] (JAK2 Kinase Inhibition), greater than 7.00.
In the same order, the values of `COc1ccc(-c2ccc3cnc(Nc4ccc5nc(CN6CCOCC6)[nH]c5c4)nn23)cn1` [Example 1513, [7-(6-Methoxy-pyridin-3-yl)-pyrrolo[2,1-f][1,2,4]triazin-2-yl]-(2-morpholin-4-ylmethyl-3H-benzimidazol-5-yl)-amine] are 5.00 to 6.00 and greater than 7.00.
In the same order, the values of `CN1C(=O)Cc2cc(Nc3ncc4ccc(Nc5cccnc5N(C)S(C)(=O)=O)n4n3)ccc21` [Example 387, N-Methyl-N-{3-[2-(1-methyl-2-oxo-2,3-dihydro-1H-indol-5-ylamino)-pyrrolo[2,1-f][1,2,4]triazin-7-ylamino]-pyridin-2-yl}-methanesulfonamide] are 5.00 to 6.00 and greater than 7.00.
Turning to `Cc1nc(-c2ccc3cnc(Nc4ccc(N5CCN(C)CC5)cc4)nn23)cn1C` [Example 1042, [7-(1,2-Dimethyl-1H-imidazol-4-yl)-pyrrolo[2,1-f][1,2,4]triazin-2-yl]-[4-(4-methyl-piperazin-1-yl)-phenyl]-amine], the pIC50 in assay [1] (setting [3]) is 6.00 to 7.00; in assay [2] (setting [4]) it was greater than 7.00.
The like results for `COc1ccc(-c2ccc3cnc(Nc4ccc5nc(C(F)(F)F)[nH]c5c4)nn23)cn1` [Example 1308, [7-(6-Methoxy-pyridin-3-yl)-pyrrolo[2,1-f][1,2,4]triazin-2-yl]-(2-trifluoromethyl-3H-benzimidazol-5-yl)-amine] were, in that order, less than 5.00 and greater than 7.00.

Source of the values: patent US8471005B2 (Cephalon, Inc., priority 2008, dated 2013).
